Assay results from patent US10421756B2, “Heterobicyclic N-aminophenyl-amides as inhibitors of histone deacetylase” (Rodin Therapeutics, Inc., priority 2015, dated 2019).

What was measured:
Format in all cases: binding
[1] = molecular target: HDAC1 (Homo sapiens (Human), UniProt Q13547); test: Reporter displacement assay (HDAC1); settings: for Kd: reporter probe displacement, Cheng Prusoff
Experimental: [The procedure below names another target; the source lists this target under the same test.] (§1) HDAC2 containing a C-terminal HIS-Tag (Proteros) and fluorescently-labeled anti-HIS-antibody are diluted in one vial in assay buffer 50 mM Tris, pH 8.0, 1 mM DTT, 150 mM NaCl, and 0.01% Tween20. Components are pre-incubated for 30 min, then a small volume of reporter probe (Proteros) is added from a highly concentrated stock and incubation is continued for another 30 min.
(§2) Ten μl/well of pre-formed complex are transferred into 384 well assay plates (Corning). Compounds to be profiled are serially diluted from […] in DMSO and 60 nl are added to assay plates by pintool transfer (CybiWell, Cybio).
For Kd determination, percent probe displacement values are calculated for each compound concentration and plotted against the compound concentration. […] Since the reporter probe is used at a concentration reflecting its own Kd value, compound Kd values can be calculated according to the Cheng Prusoff equation.

[2] = molecular target: T1, HDAC2 (Homo sapiens (Human), UniProt Q92769); test: Reporter displacement assay (HDAC2); settings: reporter probe displacement, Cheng Prusoff
Experimental: as §1, with “min. Final concentrations after adding the reporter probe amount to 20 nM HDAC2, 4 nM antibody, and 180 nM probe.” for “min.”
as §2, with “Cybio). Fluorescence intensity signal is read after 4 h in a Pherastar FS (BMG Labtech) at 337/665 nm.” for “Cybio).”
For Kd determination, percent probe displacement values are calculated for each compound concentration and plotted against the compound concentration. IC50-like values (corresponding to 50% probe displacement) are calculated using standard fitting algorithms. Since the reporter probe is used at a concentration reflecting its own Kd value, compound Kd values can be calculated according to the Cheng Prusoff equation.
In the table, “A” indicates a Kd value of less than 0.1 μM; “B” a Kd value of between 0.1 μM and 0.5 μM; “C” a Kd value of greater than 0.5 μM and less than or equal to 5.0 μM; and “D” a Kd value of greater than 5.0 μM.

[3] = molecular target: T1, HDAC2; test: Reporter displacement assay (HDAC2)

T1 sequence (Q92769 whole entry): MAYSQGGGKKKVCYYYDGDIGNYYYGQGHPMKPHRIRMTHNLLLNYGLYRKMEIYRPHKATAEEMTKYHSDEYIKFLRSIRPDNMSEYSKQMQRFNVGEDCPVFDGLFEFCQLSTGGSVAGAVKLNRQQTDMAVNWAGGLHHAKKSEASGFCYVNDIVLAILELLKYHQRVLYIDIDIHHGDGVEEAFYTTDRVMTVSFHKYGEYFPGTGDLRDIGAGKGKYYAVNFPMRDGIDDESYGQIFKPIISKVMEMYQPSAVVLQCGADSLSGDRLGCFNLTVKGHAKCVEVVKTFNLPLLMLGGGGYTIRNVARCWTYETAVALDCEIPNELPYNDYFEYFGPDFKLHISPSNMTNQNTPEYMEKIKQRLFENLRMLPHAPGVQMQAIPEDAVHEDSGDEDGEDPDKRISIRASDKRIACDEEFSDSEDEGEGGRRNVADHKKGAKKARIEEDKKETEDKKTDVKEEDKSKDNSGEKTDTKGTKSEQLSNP
Chain of HDAC1 (Q13547 whole entry): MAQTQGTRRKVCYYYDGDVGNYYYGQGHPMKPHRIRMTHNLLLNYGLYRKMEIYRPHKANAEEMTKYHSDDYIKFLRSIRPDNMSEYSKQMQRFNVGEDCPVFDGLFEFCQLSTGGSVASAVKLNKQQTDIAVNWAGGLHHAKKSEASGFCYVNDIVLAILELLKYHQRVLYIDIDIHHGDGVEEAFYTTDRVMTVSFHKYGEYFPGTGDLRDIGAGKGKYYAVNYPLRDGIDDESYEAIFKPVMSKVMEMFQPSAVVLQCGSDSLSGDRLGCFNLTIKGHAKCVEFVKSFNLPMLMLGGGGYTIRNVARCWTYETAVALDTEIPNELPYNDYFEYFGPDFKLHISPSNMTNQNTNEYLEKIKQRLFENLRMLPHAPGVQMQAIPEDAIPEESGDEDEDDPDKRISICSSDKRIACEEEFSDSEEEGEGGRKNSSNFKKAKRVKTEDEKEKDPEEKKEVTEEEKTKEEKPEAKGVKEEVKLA

| SMILES | residence time [1] | Kd [1] | Kd [2] | residence time [3] |
| --- | --- | --- | --- | --- |
| Nc1ccc(-c2ccc(F)cc2)cc1NC(=O)c1nc2c(s1)CNCC2 [Compound 147] | 1340 min | < 0.1 µM | 0.1 to 0.5 µM | 1620 min |
| Nc1ccc(-c2ccc(F)cc2)cc1NC(=O)c1cn2c(n1)CCCC2 [Compound 150] | 1080 min | 0.1 to 0.5 µM | 0.5 to 5 µM | 1010 min |
| CNC(=O)N1CCc2nc(C(=O)Nc3cc(-c4ccc(F)cc4)ccc3N)sc2C1 [Compound 152] | 1360 min | < 0.1 µM | < 0.1 µM | 2330 min |
| COC(=O)N1CC2CN(C(=O)Nc3cc(-c4ccc(F)cc4)ccc3N)CC2C1 (stereo not drawn) [Compound 154] | 1350 min | 0.1 to 0.5 µM | 0.1 to 0.5 µM | 1540 min |
| CCOC(=O)N1CC2CN(C(=O)Nc3cc(-c4ccc(F)cc4)ccc3N)CC2C1 (stereo not drawn) [Compound 155] | 1630 min | 0.1 to 0.5 µM | 0.5 to 5 µM | 1720 min |
| CC(C)OC(=O)N1CC2CN(C(=O)Nc3cc(-c4ccc(F)cc4)ccc3N)CC2C1 (stereo not drawn) [Compound 156] | 1200 min | < 0.1 µM | 0.1 to 0.5 µM | 1800 min |
| CC(C)COC(=O)N1CC2CN(C(=O)Nc3cc(-c4ccc(F)cc4)ccc3N)CC2C1 (stereo not drawn) [Compound 157] | 838 min | < 0.1 µM | 0.1 to 0.5 µM | 1360 min |
| Nc1ccc(-c2ccc(F)cc2)cc1NC(=O)N1CC2CN(C(=O)OC3CC3)CC2C1 (stereo not drawn) [Compound 158] | 1220 min | < 0.1 µM | 0.1 to 0.5 µM | 2140 min |
| Nc1ccc(-c2ccc(F)cc2)cc1NC(=O)N1CC2CN(C(=O)OC3CCC3)CC2C1 (stereo not drawn) [Compound 159] | 1060 min | < 0.1 µM | 0.1 to 0.5 µM | 2640 min |
| CC(C)CC(=O)N1CC2CN(C(=O)Nc3cc(-c4ccc(F)cc4)ccc3N)CC2C1 (stereo not drawn) [Compound 160] | 848 min | 0.1 to 0.5 µM | 0.1 to 0.5 µM | 1730 min |
| CC(C)(C)OC(=O)N1CCC2(CCN(C(=O)Nc3cc(-c4ccc(F)cc4)ccc3N)CC2)C1 [Compound 161] | 1170 min | < 0.1 µM | 0.1 to 0.5 µM | 2640 min |
| Nc1ccc(-c2ccc(F)cc2)cc1NC(=O)N1CCC2(CC1)CCN(C1COC1)C2 [Compound 164] | 1430 min | 0.1 to 0.5 µM | 0.1 to 0.5 µM | 2210 min |
| CC(C)(C)OC(=O)N1CCC2(CC1)CN(C(=O)Nc1cc(-c3ccc(F)cc3)ccc1N)C2 [Compound 166] | 84 min | 0.5 to 5 µM | 0.5 to 5 µM | 521 min |
| Nc1ccc(-c2ccc(F)cc2)cc1NC(=O)N1CC2CCNCC2C1 (stereo not drawn) [Compound 170] | 342 min | 0.5 to 5 µM | 0.5 to 5 µM | 2160 min |
| CC(C)(C)OC(=O)N1CCC2CN(C(=O)Nc3cc(-c4ccc(F)cc4)ccc3N)CC2C1 (stereo not drawn) [Compound 171] | 765 min | 0.1 to 0.5 µM | 0.1 to 0.5 µM | 1610 min |
| Nc1ccc(-c2ccc(F)cc2)cc1NC(=O)N1CCC2(CCOCC2)C1 [Compound 172] | 299 min | 0.1 to 0.5 µM | 0.1 to 0.5 µM | 987 min |
| Nc1ccc(-c2ccncc2)cc1NC(=O)c1nc2c(s1)CCNC2 [Compound 174] | 1350 min | < 0.1 µM | < 0.1 µM | 1940 min |
| Nc1ccc(-c2ccc(F)cc2)cc1NC(=O)c1nc2c(s1)CCNC2 [Compound 175] | 1170 min | < 0.1 µM | < 0.1 µM | 2710 min |

More lines, now with the values ahead:

| residence time [1] | Kd [1] | Kd [2] | residence time [3] | SMILES |
| --- | --- | --- | --- | --- |
| 876 min | 0.1 to 0.5 µM | 0.1 to 0.5 µM | 1250 min | Cn1cc(-c2ccc(N)c(NC(=O)N3Cc4ccncc4C3)c2)cn1 [Compound 145] |
| 540 min | 0.1 to 0.5 µM | 0.5 to 5 µM | 1280 min | Nc1ccc(-c2ccccn2)cc1NC(=O)N1Cc2ccncc2C1 [Compound 146] |
| 233 min | 0.5 to 5 µM | 0.5 to 5 µM | 809 min | Nc1ccc(-c2ccc(F)cc2)cc1NC(=O)N1CC2(CCOCC2)C1 [Compound 148] |
| 124 min | 0.1 to 0.5 µM | 0.1 to 0.5 µM | 573 min | N#Cc1ccc(-c2ccc(N)c(NC(=O)N3Cc4ccncc4C3)c2)cc1 [Compound 149] |
| 1130 min | < 0.1 µM | < 0.1 µM | 6280 min | Nc1ccc(-c2ccoc2)cc1NC(=O)N1Cc2ccncc2C1 [Compound 151] |
| 457 min | 0.1 to 0.5 µM | 0.5 to 5 µM | 1290 min | Nc1ccc(-c2ccc(F)cc2)cc1NC(=O)N1CC2(CCCCO2)C1 [Compound 153] |
| 946 min | < 0.1 µM | < 0.1 µM | 1340 min | Nc1ccc(-c2ccc(OC(F)F)cc2)cc1NC(=O)N1Cc2ccncc2C1 [Compound 162] |
| 259 min | 0.5 to 5 µM | 0.1 to 0.5 µM | 1720 min | Nc1ccc(-c2ccncc2)cc1NC(=O)N1CCC2(CC1)CCN(C1COC1)C2 [Compound 165] |
| 140 min | 0.5 to 5 µM | 0.5 to 5 µM | 864 min | Nc1ccc(-c2ccc(C(F)(F)F)cn2)cc1NC(=O)N1Cc2ccncc2C1 [Compound 167] |
| 1380 min | < 0.1 µM | < 0.1 µM | 5570 min | Nc1ccc(-c2ccco2)cc1NC(=O)N1Cc2ccncc2C1 [Compound 168] |
| 120 min | 0.5 to 5 µM | 0.5 to 5 µM | 716 min | Nc1ccc(-c2ccc(F)cc2)cc1NC(=O)N1CC2(CCNCC2)C1 [Compound 169] |
| 1210 min | < 0.1 µM | 0.1 to 0.5 µM | 1250 min | Nc1ccc(-c2ccc(F)cc2)cc1NC(=O)N1CCC2(CCOC2)CC1 [Compound 173] |
